Measurements: patent US11980607B2, “Methods of treating malignant lymphoproliferative disorders” (Actuate Therapeutics Inc., priority 2018, dated 2024)

Tests used:
[1] = tested on: Granta-519; assay: Proliferation assay (thymidine uptake); assay type: cell-based; details: Homo sapiens; Granta-519 (MCL), 48 hours then thymidine pulse; read-out: IC50 (μM) on Cell proliferation
Method: (§1) Cells were seeded at 1×10^4 cells/well in 96 well plates, and incubated with 9-ING-41 at indicated concentrations for 48 hours followed by pulsing with tritium labeled thymidine for overnight before being analyzed for thymidine uptake.
(§2) The IC50S of 9-ING-41 on cell survival and proliferation was calculated using an on-line IC50 calculation tool (https://www.aatbio.com/tools/ic50-calculator/).
(§3) 9-ING-41 can specifically induce lymphoma cell apoptosis without affecting normal lymphocytes. The thymidine incorporation assay in the presence or absence of 9-ING-41 was performed to test the role of GSK3 in lymphoma cell proliferation. […] The DLBCL lines required slightly higher concentrations. The IC50 of 9-ING-41 on cell proliferation for various lymphoma cell lines was calculated (Table 1).

[2] = tested on: Jeko; assay: Proliferation assay (thymidine uptake); assay type: cell-based; details: Homo sapiens; Jeko (MCL), 48 hours then thymidine pulse; read-out: IC50 (μM) on Cell proliferation
Method: as §1, §2, §3

[3] = tested on: Karpas-299; assay: Proliferation assay (thymidine uptake); assay type: cell-based; details: Homo sapiens; Karpas-299 (TCL), 48 hours then thymidine pulse; read-out: IC50 (μM) on Cell proliferation
Method: as §1, §2, §3

[4] = tested on: Mino; assay: Proliferation assay (thymidine uptake); assay type: cell-based; details: Homo sapiens; Mino (MCL), 48 hours then thymidine pulse; read-out: IC50 (μM) on Cell proliferation
Method: as §1, §2, §3

[5] = tested on: MyLa; assay: Proliferation assay (thymidine uptake); assay type: cell-based; details: Homo sapiens; MyLa (TCL), 48 hours then thymidine pulse; read-out: IC50 (μM) on Cell proliferation
Method: as §1, §2, §3

[6] = tested on: OCI-LY19; assay: Proliferation assay (thymidine uptake); assay type: cell-based; details: Homo sapiens; OCI-LY19 (DLBCL), 48 hours then thymidine pulse; read-out: IC50 (μM) on Cell proliferation
Method: as §1, §2, §3

[7] = tested on: OCI-LY1; assay: Proliferation assay (thymidine uptake); assay type: cell-based; details: Homo sapiens; OCI-LY1 (DLBCL), 48 hours then thymidine pulse; read-out: IC50 (μM) on Cell proliferation
Method: as §1, §2, §3

[8] = tested on: OCI-Ly3; assay: Proliferation assay (thymidine uptake); assay type: cell-based; details: Homo sapiens; OCI-Ly3 (DLBCL), 48 hours then thymidine pulse; read-out: IC50 (μM) on Cell proliferation
Method: as §1, §2, §3

[9] = tested on: SU-DHL6; assay: Proliferation assay (thymidine uptake); assay type: cell-based; details: Homo sapiens, SU-DHL-6; SU-DHL6 (DLBCL), 48 hours then thymidine pulse; read-out: IC50 (μM) on Cell proliferation
Method: as §1, §2, §3

[10] = tested on: SeAx; assay: Proliferation assay (thymidine uptake); assay type: cell-based; details: Homo sapiens; SeAx (TCL), 48 hours then thymidine pulse; read-out: IC50 (μM) on Cell proliferation
Method: as §1, §2, §3

[11] = tested on: Caspase 3/7 activity in lymphoma cells; assay: EnzChek Caspase 3 assay; assay type: cell-based; details: 24 hours
Method: An EnzChek caspase 3 assay (Thermo Fisher Scientific) was performed in accordance with the manufacturer's instructions. 100,000 cells were plated in a 12-well plate and treated with varying concentrations of 9-ING-41 for 24 hours in duplicate. At the end of treatment, cells were centrifuged at 200 rcf for 5 minutes and washed once with 1× PBS and lysed in 50 μL of 1× lysis buffer provided by the kit. For efficient lysis, cells were subjected to a single freeze-thaw cycle. The lysed cells were centrifuged again to remove cell debris, and the supernatant was used in the assay. 50 μL of 2× substrate working solution containing Z-DEVD-R110 substrate was added to the cell lysate, with a subsequent incubation at room temperature for 45 minutes. […] Both of these products were then measured using a Biotek synergy 2 fluorescent plate reader at corresponding wavelengths (excitation 496 nm/emission 520 nm). The fluorescent reading was normalized to the amount of protein in the cell lysate as determined via standard BCA assay (Pierce Thermo Fisher Scientific). Relative fluorescence was calculated after setting the no-treatment control to 1. […]

[12] = tested on: Jeko cells; assay: Mitotic stage morphology (Wright stain, differential counting); assay type: cell-based, human; details: 1.0 uM, 24 hours
Method: (A) Cartoon depiction of the sequential steps (M1-M5) during mitosis (purchased from Shutterstock and modified). (B). Representative Wright stain images of Jeko cells untreated and treated with 1.0 uM 9-ING-41 for 24 hours. […] (C). Bar chart showing the number of mitotic M1-M5 cells identified when 100 untreated or 9-ING-41 treated Jeko cells were counted.
Although cells arrested in G2/M appear as a single DNA content (4N) peak on a flow cytometry histogram (FIG. 6A), there are actually at least 5 sequential steps (M1-M5) in G2/M critical to successful cell division. These include prophase (M1, chromosome condensation, mitotic spindle formation starts), prometaphase (M2, nuclear membrane breakdown, centrosome polarization), metaphase (M3, chromosome pairs align middle plane), anaphase (M4, daughter chromatids separate), telophase (M5, reformation of daughter nuclei), and the final cytokinesis (separation of two daughter cells). Each of these discrete steps has a unique identifiable nuclear morphology on Wright's stained cells (depicted in FIG. 7A). The morphology of untreated and 9-ING-41 treated Jeko cells to determine at what stage they become arrested was examined. […] These observations support the conclusion that GSK3 activity is necessary for the progression of mitotic prophase.

IC50 [3]: 0.26 µM
IC50 [6]: 1.96 µM
IC50 [7]: 0.69 µM
IC50 [8]: 1.03 µM
IC50 [9]: 0.84 µM
SMILES: Cn1cc(C2=C(c3coc4ccc(F)cc34)C(=O)NC2=O)c2cc3c(cc21)OCO3 [9-ING-41, 3-(5-Fluorobenzofuran-3-yl)-4-(5-methyl-5H-[1,3]dioxolo[4,5-f]indol-7-yl)pyrrole-2,5-dione]
IC50 [1]: 0.38 µM
IC50 [2]: 0.94 µM
IC50 [4]: 0.72 µM
IC50 [5]: 0.19 µM
IC50 [10]: 0.38 µM
Concentration giving an increase in Caspase 3/7 activity [11]: ≥ 0.5 µM
Mitotic stages seen among 100 mitotic cells [12]: only prophase (M1) cells
